Assay results reported in publication PMC7419465, “Response and Adherence to Nilotinib in Daily practice (RAND study): an in-depth observational study of chronic myeloid leukemia patients treated with nilotinib” (European Journal of Clinical Pharmacology, 2020).
“And” between values parts separate entries of the source, which are not always exact repeats. Equal values may be shown once. Read-outs that look alike come from different tables or passages of the source.

Legend:
BCR-ABL transcript level [1] = test system: BCR-ABL transcript level; parameters: method as in PMID 26837842; conditions: 5-year update of the ENESTnd trial, first-line; cited from earlier work
[2] = Nilotinib trough plasma concentration (Cmin) from dried blood spot self-sampling; assay type: in vivo, CP-CML patients
Procedure: Blood sampling was performed by the patient at home by means of a validated dried blood spot (DBS) sampling method. Using the DBS, nilotinib plasma concentrations were calculated as previously reported. Patients were instructed to sample blood at predose at baseline (if already on nilotinib treatment), 3, 6, and 12 months from study entry. The time of blood sampling, time of last nilotinib intake, and body weight were recorded in patient diaries. Cmin samples were defined as those taken between 8 and 16 h after the prior dose.
Individual measures of exposure were obtained using averaged Cmin values for individual patients based on the measurements obtained at baseline, 3, 6, and 12 months. Intra-patient variability in nilotinib Cmin was analyzed in patients who had ≥ 2 analyzed samples available and expressed as the average coefficient of variation (CV%). Missing Cmin values were imputed with the mean of the observed Cmin values for the corresponding dose. Univariable linear regression was used to identify variables (one by one) related to nilotinib Cmin. GEE was used to identify whether the occurrence of side effects was related to observed nilotinib Cmin values (without imputation) obtained at baseline, 3, 6, and 12 months.

[3] = Patient-reported side effects of nilotinib (questionnaire, 5-point Likert scale); assay type: in vivo, CP-CML patients
Source text: At study entry, patients completed a self-administered composite questionnaire including demographic characteristics (date of birth, gender, education, living status, and working status), use of St. John’s wort, use of grapefruit (juice), quality of life (Short Form-12 Health Survey [SF-12]), side effects, and beliefs about medication in general (Beliefs about Medicines Questionnaire [BMQ]-General) and specifically about nilotinib (BMQ-Specific). The questionnaire at 3, 6, and 12 months also included the MARS-5 and questions on nilotinib intake in relation to food intake, use of tools to prevent forgetting, illness perception (Brief Illness Perception Questionnaire [Brief IPQ]), and information satisfaction (Satisfaction with Information about Medicines Scale [SIMS])[51, 52]. Education was assessed as the highest level completed, and dichotomized into higher education (higher general secondary education or above) and lower education. Living status was categorized as living alone or not living alone, and work status as having paid work or not. Questions on side effects were based on literature data and concerned specific nilotinib toxicities occurring in > 10% of patients (headache, nausea, rash, itching, myalgia, fatigue). Answers were scored on a 5-point Likert scale (0 = not at all to 4 = very much). Symptoms scored as “3 = a lot” or “4 = very much” were considered “severe.”

[4] = Nilotinib treatment discontinuation during the 12-month study period; assay type: in vivo, CP-CML patients; conditions: of 68 patients
Source text: In this multicenter prospective observational study, conducted between August 2013 and April 2017 in six Dutch hospitals, CP-CML patients using nilotinib were followed for 12 months. Initially, it was the aim only to include newly diagnosed CP-CML patients starting nilotinib treatment. […] The study was registered in the Netherlands Trial Register (NTR3992) and the protocol has been published previously.
Information on disease characteristics, medical history, co-medication, and nilotinib treatment was obtained from the patient’s medical file and pharmacy dispensing record.

BCR-ABL transcript level [5] = assay: Molecular response (MMR, BCR-ABL transcript level ≤ 0.1% IS) to nilotinib treatment; assay type: in vivo, CP-CML patients
Procedure: The response was considered optimal when a MMR was achieved within 12 months of nilotinib treatment. MMR was defined as a BCR-ABL transcript level of ≤ 0.1% on the International Scale. For patients already on treatment at entry, the time until MMR was obtained retrospectively from their medical files.
Comparison of adherence (continuous) and Cmin values (either grouped into quartiles [Q1 vs. Q2–Q4] or based on a previously reported threshold concentration of 490 μg/L) among response groups (time to MMR after start of nilotinib treatment ≤ 12 months vs. > 12 months, stratified by line of treatment) was performed using Mann-Whitney tests and Fisher’s exact tests. Time to MMR was assessed using the Kaplan Meier method with logrank test. In these outcome analyses, the mean of each measure of adherence and Cmin values was used. For all analyses, a two-tailed significance level of 0.05 was used. p values below this level were considered statistically significant. All statistical analyses were performed using SPSS version 22 for Windows (IBM Corp, Armonk, NY, USA).

[6] = 42 patients with ≥ 2 analyzed samples
[7] = second/third-line nilotinib treatment

- Observed nilotinib Cmin, mean ± SD ([2]; 150 mg BID (n = 15 samples)): 835 ± 412 µg/L
- Observed nilotinib Cmin, median (IQR) ([2]; 150 mg BID (n = 15 samples)): 656 (548–1042) μg/L
- Observed nilotinib Cmin, range ([2]; 150 mg BID (n = 15 samples)): 390 to 1793 µg/L
- Observed nilotinib Cmin, mean ± SD ([2]; 300 mg BID (n = 85 samples)): 1021 ± 472 µg/L
- Observed nilotinib Cmin, median (IQR) ([2]; 300 mg BID (n = 85 samples)): 954 (654–1274) μg/L
- Observed nilotinib Cmin, range ([2]; 300 mg BID (n = 85 samples)): 196 to 2413 µg/L
- Observed nilotinib Cmin, mean ± SD ([2]; 300 mg QD (n = 6 samples)): 567 ± 110 µg/L
- Observed nilotinib Cmin, median (IQR) ([2]; 300 mg QD (n = 6 samples)): 589 (450–658) μg/L
- Observed nilotinib Cmin, range ([2]; 300 mg QD (n = 6 samples)): 418 to 702 µg/L
- Observed nilotinib Cmin, mean ± SD ([2]; 400 mg BID (n = 25 samples)): 1497 ± 597 µg/L
- Observed nilotinib Cmin, median (IQR) ([2]; 400 mg BID (n = 25 samples)): 1253 (1054–2053) μg/L
- Observed nilotinib Cmin, range ([2]; 400 mg BID (n = 25 samples)): 342 to 2540 µg/L
- Observed nilotinib Cmin, mean ± SD ([2]; 400 mg QD (n = 6 samples)): 536 ± 57 µg/L
- Observed nilotinib Cmin, median (IQR) ([2]; 400 mg QD (n = 6 samples)): 552 (517–570) μg/L
- Observed nilotinib Cmin, range ([2]; 400 mg QD (n = 6 samples)): 422 to 574 µg/L
- intra-patient variability, %CV in Cmin (mean ± SD) [2, 6]: 25 ± 19%
- intra-patient variability, %CV in Cmin, median [2, 6]: 20%
- intra-patient variability, %CV in Cmin, range [2, 6]: 1–91%
- patients with nilotinib Cmin generally above the therapeutic target ([2]; in vivo): 95%
- range of Cmin values below the threshold concentration of 490 μg/L ([2]; nine patients): 196 to 467 µg/L
- patients with a Cmin below the threshold concentration of 490 μg/L at any time ([2]; nine patients of 56): 16%
- Cmin median (IQR) ([2]; patients reporting Fatigue: Mild (n = 72)): 974 (644–1373) μg/L
- Cmin median (IQR) ([2]; patients reporting Fatigue: None (n = 32)): 777 (561–1087) μg/L
- Cmin median (IQR) ([2]; patients reporting Fatigue: Severe (n = 25), p any .007, severe .023): 1160 (787–1468) μg/L
- Cmin median (IQR) ([2]; patients reporting Headache: Mild (n = 40)): 905 (625–1254) μg/L
- Cmin median (IQR) ([2]; patients reporting Headache: None (n = 91)): 970 (618–1288) μg/L
- Cmin median (IQR) ([2]; patients reporting Headache: Severe (n = 1)): 2413 µg/L
- Cmin median (IQR) ([2]; patients reporting Itching: Mild (n = 61)): 923 (740–1243) μg/L
- Cmin median (IQR) ([2]; patients reporting Itching: None (n = 61)): 954 (565–1283) μg/L
- Cmin median (IQR) ([2]; patients reporting Itching: Severe (n = 11), p severe .012): 1260 (1021–1800) μg/L
- Cmin median (IQR) ([2]; patients reporting Myalgia: Mild (n = 62)): 1031 (765–1380) μg/L
- Cmin median (IQR) ([2]; patients reporting Myalgia: None (n = 56)): 857 (574–1219) μg/L
- Cmin median (IQR) ([2]; patients reporting Myalgia: Severe (n = 12)): 840 (658–1553) μg/L
- Cmin median (IQR) ([2]; patients reporting Nausea: Mild (n = 27)): 1210 (750–1798) μg/L
- Cmin median (IQR) ([2]; patients reporting Nausea: None (n = 104)): 945 (615–1249) μg/L
- Cmin median (IQR) ([2]; patients reporting Nausea: Severe (n = 1)): 648 µg/L
- Cmin median (IQR) ([2]; patients reporting Rash: None (n = 75)): 964 (598–1338) μg/L
- Cmin median (IQR) ([2]; patients reporting Rash: Severe (n = 12)): 1157 (764–1540) μg/L
SMILES: Cc1cn(-c2cc(NC(=O)c3ccc(C)c(Nc4nccc(-c5cccnc5)n4)c3)cc(C(F)(F)F)c2)cn1 [nilotinib]
- 1-year MMR rate (BCR-ABL transcript level [1]): 55%
- Fatigue, % of patients experiencing (any severity) [3]: About 75%
- Itching, % of patients reporting (any severity) [3]: 59%
- Myalgia, % of patients reporting (any severity) [3]: 54%
- Rash, % of patients reporting (any severity) [3]: 43%
- Fatigue, % mild ([3]; mild = a little bit/rather): 54.9%
- Headache, % mild ([3]; mild = a little bit/rather): 35.8%
- Itching, % mild ([3]; mild = a little bit/rather): 51.9%
- Myalgia, % mild ([3]; mild = a little bit/rather): 48.1%
- Nausea, % mild ([3]; mild = a little bit/rather): 20.4%
- Rash, % mild ([3]; mild = a little bit/rather): 35.2%
- Fatigue, % severe ([3]; severe = a lot/very much): 20% and 19.6%
- Headache, % severe ([3]; severe = a lot/very much): 1.9%
- Itching, % severe ([3]; severe = a lot/very much): 7.4%
- Myalgia, % severe ([3]; severe = a lot/very much): 6% and 5.8%
- Nausea, % severe ([3]; severe = a lot/very much): 1.9%
- Rash, % severe ([3]; severe = a lot/very much): 7.4%
- number of patients who discontinued nilotinib treatment due to progression [4]: 4
- number of patients who discontinued nilotinib treatment due to side effects [4]: 6
- 1-year MMR rate according to nilotinib Cmin (BCR-ABL transcript level [5]; All patients, Cmin quartile Q1 (< 635 μg/L)): 56% (5/9)
- 1-year MMR rate according to nilotinib Cmin (BCR-ABL transcript level [5]; All patients, Cmin quartile Q2 (Q2–Q3 635–< 1346 μg/L)): 88% (7/8)
- 1-year MMR rate according to nilotinib Cmin (BCR-ABL transcript level [5]; All patients, Cmin quartile Q3 (Q2–Q3 635–< 1346 μg/L)): 75% (12/16)
- 1-year MMR rate according to nilotinib Cmin (BCR-ABL transcript level [5]; All patients, Cmin quartile Q4 (≥ 1346 μg/L)): 30% (3/10)
- median time to MMR12 (BCR-ABL transcript level [5]; Cmin quartile Q1, n = 5): 6.4 months
- median time to MMR12 (BCR-ABL transcript level [5]; Cmin quartile Q2, n = 7): 6.7 months
- median time to MMR12 (BCR-ABL transcript level [5]; Cmin quartile Q3, n = 12): 4.3 months
- median time to MMR12 (BCR-ABL transcript level [5]; Cmin quartile Q4, n = 3): 2.8 months
- 1-year MMR rate according to nilotinib Cmin (BCR-ABL transcript level [5]; Subpopulation 1A/1B (1st line treatment), Q1 (< 635 μg/L)): 71% (5/7)
- 1-year MMR rate according to nilotinib Cmin (BCR-ABL transcript level [5]; Subpopulation 1A/1B (1st line treatment), Q2): 100% (5/5)
- 1-year MMR rate according to nilotinib Cmin (BCR-ABL transcript level [5]; Subpopulation 1A/1B (1st line treatment), Q3): 73% (8/11)
- 1-year MMR rate according to nilotinib Cmin (BCR-ABL transcript level [5]; Subpopulation 1A/1B (1st line treatment), Q4 (≥ 1346 μg/L)): 40% (2/5)
- 1-year MMR rate according to nilotinib Cmin (BCR-ABL transcript level [5]; Subpopulation 2A/2B (≥ 2nd line treatment), Q1 (< 635 μg/L)): 0% (0/2)
- 1-year MMR rate according to nilotinib Cmin (BCR-ABL transcript level [5]; Subpopulation 2A/2B (≥ 2nd line treatment), Q3): 80% (4/5)
- 1-year MMR rate according to nilotinib Cmin (BCR-ABL transcript level [5]; Subpopulation 2A/2B (≥ 2nd line treatment), Q4 (≥ 1346 μg/L)): 20% (1/5)
- mean time to MMR12 (BCR-ABL transcript level [5]; first-line nilotinib treatment): 5.9 ± 3.2 months
- median time to MMR12 (BCR-ABL transcript level [5]; first-line nilotinib treatment): 6.1 months
- time to MMR12, range (BCR-ABL transcript level [5]; first-line nilotinib treatment): 1.2–12.9 months
- 1-year MMR rate (BCR-ABL transcript level [5]; first-line nilotinib treatment (subpopulations 1A/1B), 20/28): 71%
- overall 1-year MMR rate (BCR-ABL transcript level [5]; range over lines of treatment): 47 to 71%
- mean time to MMR12 (BCR-ABL transcript level [5]; [7]): 5.8 ± 4.4 months
- median time to MMR12 (BCR-ABL transcript level [5]; [7]): 3.7 months
- time to MMR12, range (BCR-ABL transcript level [5]; [7]): 2.6–12.4 months
- 1-year MMR rate (BCR-ABL transcript level [5]; second/third-line nilotinib treatment (subpopulations 2A/2B), 7/15): 47%
